{
  "source": "patent US11214594B2",
  "about": "“Antimicrobial peptide having synergistic antibacterial effect with antibiotics on multidrug resistant bacteria, and use thereof” (priority 2016, dated 2022)",
  "key": {"E. coli [1]": {"system": "E. coli", "experiment": "MIC of antibiotic during combined treatment with antimicrobial peptide", "assay_type": "cell-based, Escherichia coli", "conditions": "E. coli", "outline": "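Using MH broth, we determined combination MICs by titrating the antibiotic into wells and then repeating under the reverse dilution scheme.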"}, "MDREC 1229 [2]": {"system": "MDREC 1229", "experiment": "MIC of antibiotic during combined treatment with antimicrobial peptide", "assay_type": "cell-based, Escherichia coli", "outline": "(§1)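 Broth microdilution in MH medium; strains were diluted to 2×10^6 CFU per ml before plating. Peptide was serially diluted stepwise at 2:1 starting from its MIC, and MH-diluted antibiotic was then added to determine MIC. The reversed arrangement was also tested.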"}, "E. coli [3]": {"system": "E. coli", "experiment": "microbe, parasite or virus in culture", "assay_type": "cell-based, Escherichia coli", "conditions": "16 h", "outline": "(§2)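 Each strain is brought to 2×10^6 CFU in nutrient-sufficient Mueller-Hinton medium and dispensed into wells. Peptide solutions, stepwise diluted 2:1 in the same medium, are then added. The minimal concentration preventing growth gives the MIC.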"}, "MDREC 1229 [4]": {"system": "MDREC 1229", "experiment": "microbe, parasite or virus in culture", "assay_type": "cell-based, Escherichia coli", "outline": "as §2"}, "A. baumannii": {"system": "A. baumannii", "experiment": "MIC of antimicrobial peptide during combined treatment with antibiotic", "assay_type": "cell-based, Acinetobacter baumannii", "outline": "as §1"}, "MDRAB 12035": {"system": "MDRAB 12035", "experiment": "MIC of antimicrobial peptide during combined treatment with antibiotic", "assay_type": "cell-based, Acinetobacter baumannii", "outline": "as §1"}, "[5]": {"conditions": "peptide treatment concentration 1 μg/ml"}, "[6]": {"conditions": "peptide treatment concentration 2 μg/ml"}, "[7]": {"conditions": "peptide treatment concentration 4 μg/ml"}, "[8]": {"conditions": "peptide treatment concentration 6 μg/ml"}, "[9]": {"conditions": "peptide treatment concentration 8 μg/ml"}, "[10]": {"conditions": "peptide treatment concentration 16 μg/ml"}, "[11]": {"conditions": "peptide treatment concentration 32 μg/ml"}, "[12]": {"conditions": "peptide treatment concentration 64 μg/ml"}, "[13]": {"conditions": "erythromycin 4 μg/ml (Conc./MIC 1/8)"}, "[14]": {"conditions": "erythromycin 8 μg/ml (Conc./MIC 1/4)"}, "[15]": {"conditions": "erythromycin 16 μg/ml (Conc./MIC 1/2)"}, "[16]": {"conditions": "erythromycin 32 μg/ml (Conc./MIC 1)"}, "[17]": {"conditions": "vancomycin 512 μg/ml (Conc./MIC 1/2)"}, "[18]": {"conditions": "vancomycin 1024 μg/ml (Conc./MIC 1)"}},
  "note": "Where a SMILES comes first, the peptide text is derived from it.",
  "data": [
    {"smiles": "CC[C@H](C)[C@H](NC(=O)[C@H](CCCCN)NC(=O)[C@H](Cc1c[nH]c2ccccc12)NC(=O)[C@@H](N)CCCNC(=N)N)C(=O)N[C@@H](Cc1ccccc1)C(=O)N[C@@H](CCCCN)C(=O)N[C@@H](CCCCN)C(=O)N[C@H](C(=O)N1CCC[C@H]1C(=O)N[C@@H](CCCCN)C(=O)N[C@@H](Cc1ccccc1)C(=O)N[C@@H](CC(C)C)C(=O)N[C@@H](Cc1c[nH]cn1)C(=O)N[C@@H](CO)C(=O)N[C@@H](Cc1c[nH]c2ccccc12)C(=O)N[C@@H](CCCCN)C(=O)N[C@@H](CCCCN)C(=O)N[C@@H](Cc1ccccc1)C(N)=O)[C@@H](C)CC", "note": "[PapMA-3, RWK IFK KIP KFL HSW KKF-NH2] (H-RWKIFKKIPKFLHSWKKF-NH2; N-terminus assumed)", "values": [
      {"measurement": "Antibiotic MIC, Vancomycin", "setting": "E. coli [1]; vancomycin combined with peptide at 6 μg/ml", "result": 128, "unit": "µg/mL"},
      {"measurement": "Antibiotic MIC, Vancomycin", "setting": "E. coli [1]; vancomycin combined with peptide at 8 μg/ml", "result": 32, "unit": "µg/mL"},
      {"measurement": "Antibiotic MIC, Vancomycin", "setting": "E. coli [1]; vancomycin combined with peptide at 16 μg/ml", "result": 8, "unit": "µg/mL"},
      {"measurement": "Antibiotic MIC, Vancomycin", "setting": "E. coli [1]; vancomycin combined with peptide at 32 μg/ml", "result": 0, "unit": "µg/mL"},
      {"measurement": "Antibiotic MIC, Vancomycin", "setting": "E. coli [1]; vancomycin combined with peptide at 64 μg/ml", "result": 0, "unit": "µg/mL"},
      {"measurement": "Antibiotic MIC, Erythromycin", "setting": "MDREC 1229 [2]; [5]", "result": 128, "unit": "µg/mL"},
      {"measurement": "Antibiotic MIC, Linezolid", "setting": "MDREC 1229 [2]; [5]", "result": ">128", "unit": "µg/mL"},
      {"measurement": "Antibiotic MIC, Vancomycin", "setting": "MDREC 1229 [2]; [5]", "result": ">128", "unit": "µg/mL"},
      {"measurement": "Antibiotic MIC, Erythromycin", "setting": "MDREC 1229 [2]; [6]", "result": 32, "unit": "µg/mL"},
      {"measurement": "Antibiotic MIC, Linezolid", "setting": "MDREC 1229 [2]; [6]", "result": 64, "unit": "µg/mL"},
      {"measurement": "Antibiotic MIC, Vancomycin", "setting": "MDREC 1229 [2]; [6]", "result": ">128", "unit": "µg/mL"},
      {"measurement": "Antibiotic MIC, Erythromycin", "setting": "MDREC 1229 [2]; [7]", "result": 32, "unit": "µg/mL"},
      {"measurement": "Antibiotic MIC, Linezolid", "setting": "MDREC 1229 [2]; [7]", "result": 64, "unit": "µg/mL"},
      {"measurement": "Antibiotic MIC, Vancomycin", "setting": "MDREC 1229 [2]; [7]", "result": ">128", "unit": "µg/mL"},
      {"measurement": "Antibiotic MIC, Erythromycin", "setting": "MDREC 1229 [2]; [8]", "result": 16, "unit": "µg/mL"},
      {"measurement": "Antibiotic MIC, Linezolid", "setting": "MDREC 1229 [2]; [8]", "result": 32, "unit": "µg/mL"},
      {"measurement": "Antibiotic MIC, Vancomycin", "setting": "MDREC 1229 [2]; [8]", "result": ">128", "unit": "µg/mL"},
      {"measurement": "Antibiotic MIC, Erythromycin", "setting": "MDREC 1229 [2]; [9]", "result": 4, "unit": "µg/mL"},
      {"measurement": "Antibiotic MIC, Linezolid", "setting": "MDREC 1229 [2]; [9]", "result": 16, "unit": "µg/mL"},
      {"measurement": "Antibiotic MIC, Vancomycin", "setting": "MDREC 1229 [2]; [9]", "result": 128, "unit": "µg/mL"},
      {"measurement": "Antibiotic MIC, Erythromycin", "setting": "MDREC 1229 [2]; [10]", "result": 0.25, "unit": "µg/mL"},
      {"measurement": "Antibiotic MIC, Linezolid", "setting": "MDREC 1229 [2]; [10]", "result": 4, "unit": "µg/mL"},
      {"measurement": "Antibiotic MIC, Vancomycin", "setting": "MDREC 1229 [2]; [10]", "result": 16, "unit": "µg/mL"},
      {"measurement": "Antibiotic MIC, Erythromycin", "setting": "MDREC 1229 [2]; [11]", "result": 0, "unit": "µg/mL"},
      {"measurement": "Antibiotic MIC, Linezolid", "setting": "MDREC 1229 [2]; [11]", "result": 0, "unit": "µg/mL"},
      {"measurement": "Antibiotic MIC, Vancomycin", "setting": "MDREC 1229 [2]; [11]", "result": 0, "unit": "µg/mL"},
      {"measurement": "Antibiotic MIC, Erythromycin", "setting": "MDREC 1229 [2]; [12]", "result": 0, "unit": "µg/mL"},
      {"measurement": "Antibiotic MIC, Linezolid", "setting": "MDREC 1229 [2]; [12]", "result": 0, "unit": "µg/mL"},
      {"measurement": "Antibiotic MIC, Vancomycin", "setting": "MDREC 1229 [2]; [12]", "result": 0, "unit": "µg/mL"},
      {"measurement": "Minimal inhibitory concentration MIC", "setting": "E. coli [3]", "result": 32, "unit": "µg/mL"},
      {"measurement": "Minimal inhibitory concentration MIC", "setting": "MDREC 1229 [4]", "result": 32, "unit": "µg/mL"},
      {"measurement": "Peptide MIC during treatment with antibiotic", "setting": "A. baumannii; [13]", "result": 4, "unit": "µg/mL"},
      {"measurement": "Peptide MIC during treatment with antibiotic", "setting": "A. baumannii; [14]", "result": 4, "unit": "µg/mL"},
      {"measurement": "Peptide MIC during treatment with antibiotic", "setting": "A. baumannii; [15]", "result": 2, "unit": "µg/mL"},
      {"measurement": "Peptide MIC during treatment with antibiotic", "setting": "A. baumannii; [16]", "result": 0, "unit": "µg/mL"},
      {"measurement": "Peptide MIC during treatment with antibiotic", "setting": "A. baumannii; linezolid 32 μg/ml (Conc./MIC 1/8)", "result": 4, "unit": "µg/mL"},
      {"measurement": "Peptide MIC during treatment with antibiotic", "setting": "A. baumannii; linezolid 64 μg/ml (Conc./MIC 1/4)", "result": 2, "unit": "µg/mL"},
      {"measurement": "Peptide MIC during treatment with antibiotic", "setting": "A. baumannii; linezolid […] (Conc./MIC 1)", "result": 0, "unit": "µg/mL"},
      {"measurement": "Peptide MIC during treatment with antibiotic", "setting": "A. baumannii; linezolid […] (Conc./MIC 1/2)", "result": 1, "unit": "µg/mL"},
      {"measurement": "Peptide MIC during treatment with antibiotic", "setting": "A. baumannii; [17]", "result": 0.25, "unit": "µg/mL"},
      {"measurement": "Peptide MIC during treatment with antibiotic", "setting": "A. baumannii; [18]", "result": 0, "unit": "µg/mL"},
      {"measurement": "Peptide MIC during treatment with antibiotic", "setting": "A. baumannii; vancomycin […] (Conc./MIC 1/4)", "result": 0.25, "unit": "µg/mL"},
      {"measurement": "Peptide MIC during treatment with antibiotic", "setting": "A. baumannii; vancomycin […] (Conc./MIC 1/8)", "result": 2, "unit": "µg/mL"},
      {"measurement": "Peptide MIC during treatment with erythromycin", "setting": "MDRAB 12035; [13]", "result": 4, "unit": "µg/mL"},
      {"measurement": "Peptide MIC during treatment with erythromycin", "setting": "MDRAB 12035; [14]", "result": 4, "unit": "µg/mL"},
      {"measurement": "Peptide MIC during treatment with erythromycin", "setting": "MDRAB 12035; [15]", "result": 2, "unit": "µg/mL"},
      {"measurement": "Peptide MIC during treatment with erythromycin", "setting": "MDRAB 12035; [16]", "result": 0, "unit": "µg/mL"},
      {"measurement": "Peptide MIC during treatment with linezolid", "setting": "MDRAB 12035; linezolid 64 μg/ml (Conc./MIC 1/8)", "result": 4, "unit": "µg/mL"},
      {"measurement": "Peptide MIC during treatment with linezolid", "setting": "MDRAB 12035; linezolid 512 μg/ml (Conc./MIC 1)", "result": 0, "unit": "µg/mL"},
      {"measurement": "Peptide MIC during treatment with linezolid", "setting": "MDRAB 12035; linezolid […] (Conc./MIC 1/2)", "result": 1, "unit": "µg/mL"},
      {"measurement": "Peptide MIC during treatment with linezolid", "setting": "MDRAB 12035; linezolid […] (Conc./MIC 1/4)", "result": 2, "unit": "µg/mL"},
      {"measurement": "Peptide MIC during treatment with vancomycin", "setting": "MDRAB 12035; [17]", "result": 2, "unit": "µg/mL"},
      {"measurement": "Peptide MIC during treatment with vancomycin", "setting": "MDRAB 12035; [18]", "result": 0.25, "unit": "µg/mL"},
      {"measurement": "Peptide MIC during treatment with vancomycin", "setting": "MDRAB 12035; vancomycin […] (Conc./MIC 1/4)", "result": 2, "unit": "µg/mL"},
      {"measurement": "Peptide MIC during treatment with vancomycin", "setting": "MDRAB 12035; vancomycin […] (Conc./MIC 1/8)", "result": 4, "unit": "µg/mL"}
    ]}
  ]
}
